Test system: MV-4-11 cells
Assay: Gene expression microarray analysis (Affymetrix PrimeView) and GSEA
Type: cell-based, human
Parameters: RFU PODN (11730768_x_at) / Fold change /veh PODN (11730768_x_at) / RFU LINC00158 (11744669_a_at) / Fold change /veh LINC00158 (11744669_a_at) / RFU DUSP10 (11751237_a_at) / Fold change /veh DUSP10 (11751237_a_at) / RFU ID3 (11757404_x_at) / Fold change /veh ID3 (11757404_x_at) / RFU PLEKHG5 (11737974_s_at) / Fold change /veh PLEKHG5 (11737974_s_at) / RFU LRRC4B (11730491_at) / Fold change /veh LRRC4B (11730491_at) / RFU GIMAP4 (11747438_a_at) / Fold change /veh GIMAP4 (11747438_a_at) / RFU KRT8 (11758183_x_at) / Fold change /veh KRT8 (11758183_x_at) / RFU CNN1 (11734310_a_at) / Fold change /veh CNN1 (11734310_a_at) / RFU VPS37D (11726825_at) / Fold change /veh VPS37D (11726825_at) / RFU C10orf10 (11716522_x_at) / Fold change /veh C10orf10 (11716522_x_at) / RFU KIR2DL2 /// KIR2DL4 /// KIR2DL5A /// KIR2DL5B /// KIR2DS1 /// KIR2DS2 /// KIR2DS3 /// KIR2DS4 /// KIR3DL3 /// KIR3DL3 /// KIR3DS1 (11738374_at) / Fold change /veh KIR2DL2 /// KIR2DL4 /// KIR2DL5A /// KIR2DL5B /// KIR2DS1 /// KIR2DS2 /// KIR2DS3 /// KIR2DS4 /// KIR3DL3 /// KIR3DL3 /// KIR3DS1 (11738374_at) / RFU C1QL1 (11718748_at) / Fold change /veh C1QL1 (11718748_at) / RFU TMPRSS4 (11747572_a_at) / Fold change /veh TMPRSS4 (11747572_a_at) / RFU HAMP (11756126_x_at) / Fold change /veh HAMP (11756126_x_at) / RFU RNFT2 (11725882_a_at) / Fold change /veh RNFT2 (11725882_a_at) / RFU NR4A2 (11747474_a_at) / Fold change /veh NR4A2 (11747474_a_at) / RFU ABCC12 (11746883_a_at) / Fold change /veh ABCC12 (11746883_a_at) / RFU TMEM136 (11760407_x_at) / Fold change /veh TMEM136 (11760407_x_at) / RFU CLDN22 /// WWC2 (11732394_at) / Fold change /veh CLDN22 /// WWC2 (11732394_at) / RFU HLA-DPB1 (11760878_x_at) / Fold change /veh HLA-DPB1 (11760878_x_at) / RFU SPINT1 (11716480_a_at) / Fold change /veh SPINT1 (11716480_a_at) / RFU GAP43 (11754022_s_at) / Fold change /veh GAP43 (11754022_s_at) / RFU A4GNT (11735810_at) / Fold change /veh A4GNT (11735810_at) / RFU PRB3 (11715151_x_at) / Fold change /veh PRB3 (11715151_x_at) / RFU TUBB4B (11761932_at) / Fold change /veh TUBB4B (11761932_at) / RFU CAPN14 (11732068_a_at) / Fold change /veh CAPN14 (11732068_a_at) / RFU TMCC2 (11721928_a_at) / Fold change /veh TMCC2 (11721928_a_at) / RFU IRGQ (11745062_a_at) / Fold change /veh IRGQ (11745062_a_at) / RFU FAM174B (11720279_a_at) / Fold change /veh FAM174B (11720279_a_at) / RFU TMPRSS4 (11748680_a_at) / Fold change /veh TMPRSS4 (11748680_a_at) / RFU FAM212B (11763350_a_at) / Fold change /veh FAM212B (11763350_a_at) / RFU PLEKHG5 (11743358_a_at) / Fold change /veh PLEKHG5 (11743358_a_at) / RFU ZSCAN30 (11745921_a_at) / Fold change /veh ZSCAN30 (11745921_a_at) / RFU CMKLR1 (11741424_a_at) / Fold change /veh CMKLR1 (11741424_a_at) / RFU LOC101060620 /// MAPK8IP1 (11723275_at) / Fold change /veh LOC101060620 /// MAPK8IP1 (11723275_at) / RFU SPTSSB (11747773_x_at) / Fold change /veh SPTSSB (11747773_x_at) / RFU PRSS12 (11739890_at) / Fold change /veh PRSS12 (11739890_at) / RFU BIN1 (11741810_x_at) / Fold change /veh BIN1 (11741810_x_at) / RFU WNT11 (11732464_a_at) / Fold change /veh WNT11 (11732464_a_at) / RFU C10orf10 (11716521_a_at) / Fold change /veh C10orf10 (11716521_a_at) / RFU C5orf56 (11738089_at) / Fold change /veh C5orf56 (11738089_at) / RFU CYB561 (11721691_x_at) / Fold change /veh CYB561 (11721691_x_at) / RFU ANKRD19P (11752326_a_at) / Fold change /veh ANKRD19P (11752326_a_at) / RFU OR2T12 /// OR2T33 /// OR2T8 (11738714_s_at) / Fold change /veh OR2T12 /// OR2T33 /// OR2T8 (11738714_s_at) / RFU VCAN (11748164_a_at) / Fold change /veh VCAN (11748164_a_at) / RFU JSRP1 (11732532_at) / Fold change /veh JSRP1 (11732532_at) / RFU KRTAP10-11 (11738290_x_at) / Fold change /veh KRTAP10-11 (11738290_x_at) / RFU MYO3A (11730013_a_at) / Fold change /veh MYO3A (11730013_a_at) / RFU EBF3 (11725865_a_at) / Fold change /veh EBF3 (11725865_a_at) / RFU CAMK2N1 (11719241_x_at) / Fold change /veh CAMK2N1 (11719241_x_at) / RFU C5orf56 (11738088_a_at) / Fold change /veh C5orf56 (11738088_a_at) / RFU OLFML3 (11715873_a_at) / Fold change /veh OLFML3 (11715873_a_at) / RFU LOC100653217 /// NTM (11731650_a_at) / Fold change /veh LOC100653217 /// NTM (11731650_a_at) / RFU MAPK11 (11762145_a_at) / Fold change /veh MAPK11 (11762145_a_at) / RFU FIZ1 (11724087_x_at) / Fold change /veh FIZ1 (11724087_x_at) / RFU OASL (11726364_x_at) / Fold change /veh OASL (11726364_x_at) / RFU SOX15 (11748057_x_at) / Fold change /veh SOX15 (11748057_x_at) / RFU CD79A (11719716_a_at) / Fold change /veh CD79A (11719716_a_at) / RFU HIST1H1D (11736915_at) / Fold change /veh HIST1H1D (11736915_at) / RFU CASKIN2 (11723855_a_at) / Fold change /veh CASKIN2 (11723855_a_at) / RFU LOC730098 (11760151_x_at) / Fold change /veh LOC730098 (11760151_x_at) / RFU OR4N2 (11742367_at) / Fold change /veh OR4N2 (11742367_at) / RFU PRRT2 (11749266_a_at) / Fold change /veh PRRT2 (11749266_a_at) / RFU SNX32 (11753110_a_at) / Fold change /veh SNX32 (11753110_a_at) / RFU CDHR5 (11726645_a_at) / Fold change /veh CDHR5 (11726645_a_at) / RFU RCAN1 (11760418_a_at) / Fold change /veh RCAN1 (11760418_a_at) / RFU FAM167A (11723789_a_at) / Fold change /veh FAM167A (11723789_a_at) / RFU FAM26E (11764081_at) / Fold change /veh FAM26E (11764081_at) / RFU ISYNA1 (11749810_s_at) / Fold change /veh ISYNA1 (11749810_s_at) / RFU ACY1 (11761880_at) / Fold change /veh ACY1 (11761880_at) / RFU 11764098_at / Fold change /veh 11764098_at / RFU SAMD14 (11745864_x_at) / Fold change /veh SAMD14 (11745864_x_at) / RFU NPB (11741838_a_at) / Fold change /veh NPB (11741838_a_at) / RFU TMPRSS6 (11731388_a_at) / Fold change /veh TMPRSS6 (11731388_a_at) / RFU KRTAP10-2 (11738614_at) / Fold change /veh KRTAP10-2 (11738614_at) / RFU ARHGAP8 /// PRR5-ARHGAP8 (11727945_x_at) / Fold change /veh ARHGAP8 /// PRR5-ARHGAP8 (11727945_x_at) / RFU KRTAP5-7 /// NADSYN1 (11734609_at) / Fold change /veh KRTAP5-7 /// NADSYN1 (11734609_at) / RFU RASL12 (11751679_a_at) / Fold change /veh RASL12 (11751679_a_at) / RFU CDKN2B (11736163_a_at) / Fold change /veh CDKN2B (11736163_a_at) / RFU PRF1 (11729649_at) / Fold change /veh PRF1 (11729649_at) / RFU, ZNF638 /// ZNF638-IT1 / Fold change vs veh, ZNF638 /// ZNF638-IT1 / RFU, PANK3 / Fold change vs veh, PANK3 / RFU, SH3YL1 / Fold change vs veh, SH3YL1 / RFU, ZEB2 / Fold change vs veh, ZEB2 / RFU, NRIP1 / Fold change vs veh, NRIP1 / RFU, PTTG1IP / Fold change vs veh, PTTG1IP / RFU, CAPN2 / Fold change vs veh, CAPN2 / RFU, MED14 / Fold change vs veh, MED14 / RFU, SNORA58 / Fold change vs veh, SNORA58 / RFU, C1orf63 / Fold change vs veh, C1orf63 / RFU, LRRFIP1 / Fold change vs veh, LRRFIP1 / RFU, NDUFAF7 / Fold change vs veh, NDUFAF7 / RFU, SLC12A2 / Fold change vs veh, SLC12A2 / RFU, IBTK / Fold change vs veh, IBTK / RFU, ESF1 / Fold change vs veh, ESF1 / Fold change vs veh, TMEM50B / RFU, TAOK1 / Fold change vs veh, TAOK1 / RFU, ACBD3 / Fold change vs veh, ACBD3 / RFU, TMA16 / Fold change vs veh, TMA16 / RFU, RWDD3 / Fold change vs veh, RWDD3 / RFU, BCAT1 / Fold change vs veh, BCAT1 / RFU, EDEM3 / Fold change vs veh, EDEM3 / RFU, TMEM33 / Fold change vs veh, TMEM33 / RFU, WDR75 / Fold change vs veh, WDR75 / RFU, AHCTF1 / Fold change vs veh, AHCTF1 / RFU, TFRC / Fold change vs veh, TFRC / RFU, ZDHHC17 / Fold change vs veh, ZDHHC17 / RFU, NOM1 / Fold change vs veh, NOM1 / RFU, ARL8B / Fold change vs veh, ARL8B / RFU, ZBTB11 / Fold change vs veh, ZBTB11 / RFU, TAMM41 / Fold change vs veh, TAMM41 / RFU, KIAA1704 /// LOC100996395 / Fold change vs veh, KIAA1704 /// LOC100996395 / RFU, ING1 / Fold change vs veh, ING1 / RFU, TRMT61B / Fold change vs veh, TRMT61B / RFU, FUBP3 / Fold change vs veh, FUBP3 / RFU, TP53 / Fold change vs veh, TP53 / RFU, TNKS2 / Fold change vs veh, TNKS2 / RFU, ZFP14 / Fold change vs veh, ZFP14 / RFU, ACTR2 / Fold change vs veh, ACTR2 / RFU, PPP3R1 / Fold change vs veh, PPP3R1 / RFU, PIK3R1 / Fold change vs veh, PIK3R1 / RFU, HNRNPA1 / Fold change vs veh, HNRNPA1 / RFU, RNF170 / Fold change vs veh, RNF170 / RFU, ZNF28 / Fold change vs veh, ZNF28 / RFU, RNGTT / Fold change vs veh, RNGTT / RFU, OGT / Fold change vs veh, OGT / RFU, BRD1 / Fold change vs veh, BRD1 / RFU, MARS / Fold change vs veh, MARS / RFU, ZNF655 / Fold change vs veh, ZNF655 / RFU, FAHD1 / Fold change vs veh, FAHD1 / RFU, BDP1 / Fold change vs veh, BDP1 / RFU, LRRCC1 / Fold change vs veh, LRRCC1 / RFU, ARID1A / Fold change vs veh, ARID1A / RFU, ZNF146 / Fold change vs veh, ZNF146 / RFU, ZNF330 / Fold change vs veh, ZNF330 / RFU, GPN3 / Fold change vs veh, GPN3 / RFU, C9orf123 / Fold change vs veh, C9orf123 / RFU, N4BP2L2 / Fold change vs veh, N4BP2L2 / RFU, ARFIP1 / Fold change vs veh, ARFIP1 / RFU, FAM179B / Fold change vs veh, FAM179B / RFU, BCL10 / Fold change vs veh, BCL10 / RFU, UHRF1BP1L / Fold change vs veh, UHRF1BP1L / RFU, BET1 / Fold change vs veh, BET1 / RFU, CNOT2 / Fold change vs veh, CNOT2 / RFU, ZNF268 / Fold change vs veh, ZNF268 / Fold change vs veh, ZNF507 / RFU, DGCR2 / Fold change vs veh, DGCR2 / RFU, WDSUB1 / Fold change vs veh, WDSUB1 / Fold change vs veh, HSP90B1 /// MIR3652 / RFU, ADSS / Fold change vs veh, ADSS / RFU, GK / Fold change vs veh, GK / RFU, ZNF148 / Fold change vs veh, ZNF148 / RFU, TAF9 / Fold change vs veh, TAF9 / RFU, SLC1A5 / Fold change vs veh, SLC1A5 / RFU, SLMO2 / Fold change vs veh, SLMO2 / RFU, ABCC4 / Fold change vs veh, ABCC4 / RFU, LOC101060439 /// RAP1B / Fold change vs veh, LOC101060439 /// RAP1B / RFU, RFX7 / Fold change vs veh, RFX7 / RFU, GTPBP10 / Fold change vs veh, GTPBP10 / RFU, CNEP1R1 / Fold change vs veh, CNEP1R1 / RFU, BIVM-ERCC5 /// ERCC5 / Fold change vs veh, BIVM-ERCC5 /// ERCC5 / RFU, ILF3 / Fold change vs veh, ILF3 / RFU 11762660_at / Fold change /veh 11762660_at / RFU VCAN (11757783_s_at) / Fold change /veh VCAN (11757783_s_at) / RFU DDX43 (11728927_at) / Fold change /veh DDX43 (11728927_at) / RFU KRT8 (11758188_x_at) / Fold change /veh KRT8 (11758188_x_at) / RFU NKD1 (11759106_at) / Fold change /veh NKD1 (11759106_at) / RFU SRD5A1 (11742802_a_at) / Fold change /veh SRD5A1 (11742802_a_at) / RFU TPSAB1 /// TPSB2 (11721975_s_at) / Fold change /veh TPSAB1 /// TPSB2 (11721975_s_at) / RFU GSTM3 (11746129_a_at) / Fold change /veh GSTM3 (11746129_a_at) / RFU IL23R (11737362_x_at) / Fold change /veh IL23R (11737362_x_at) / RFU TMEM51 (11727254_a_at) / Fold change /veh TMEM51 (11727254_a_at) / RFU PIWIL2 (11732686_x_at) / Fold change /veh PIWIL2 (11732686_x_at) / RFU ORM1 (11744905_x_at) / Fold change /veh ORM1 (11744905_x_at) / RFU CCDC152 (11743942_at) / Fold change /veh CCDC152 (11743942_at) / RFU ECM1 (11717891_a_at) / Fold change /veh ECM1 (11717891_a_at) / RFU IL23R (11748794_a_at) / Fold change /veh IL23R (11748794_a_at) / RFU TNFAIP8L3 (11732012_x_at) / Fold change /veh TNFAIP8L3 (11732012_x_at) / RFU MBOAT4 (11741988_at) / Fold change /veh MBOAT4 (11741988_at) / RFU 11764193_at / Fold change /veh 11764193_at / RFU TMEM53 (11763286_at) / Fold change /veh TMEM53 (11763286_at) / RFU MAGEB2 (11727129_at) / Fold change /veh MAGEB2 (11727129_at) / RFU TMEM200A (11744735_a_at) / Fold change /veh TMEM200A (11744735_a_at) / RFU CCDC152 (11751479_a_at) / Fold change /veh CCDC152 (11751479_a_at) / RFU FAM211A (11726209_a_at) / Fold change /veh FAM211A (11726209_a_at) / RFU RGS16 (11746705_a_at) / Fold change /veh RGS16 (11746705_a_at) / RFU VCAN (11755009_s_at) / Fold change /veh VCAN (11755009_s_at) / RFU RHOB (11743442_s_at) / Fold change /veh RHOB (11743442_s_at) / RFU RGS16 (11720943_a_at) / Fold change /veh RGS16 (11720943_a_at) / RFU RGS16 (11720944_at) / Fold change /veh RGS16 (11720944_at) / RFU, VPS4B / Fold change vs veh, VPS4B / RFU, CREB1 / Fold change vs veh, CREB1 / RFU, DNAJC13 / Fold change vs veh, DNAJC13 / RFU, GNAQ / Fold change vs veh, GNAQ / RFU, CDK5R1 / Fold change vs veh, CDK5R1 / RFU, ZRANB3 / Fold change vs veh, ZRANB3 / RFU, CUL4A / Fold change vs veh, CUL4A / RFU, CCNY / Fold change vs veh, CCNY / RFU, UFL1 / Fold change vs veh, UFL1 / RFU, COG3 / Fold change vs veh, COG3 / RFU, DIAPH2 / Fold change vs veh, DIAPH2 / RFU, SKA2 / Fold change vs veh, SKA2 / RFU, AFF3 / Fold change vs veh, AFF3 / RFU, LMF1 / Fold change vs veh, LMF1 / RFU, IPO11 / Fold change vs veh, IPO11 / RFU, DFFB / Fold change vs veh, DFFB / RFU, FOXP1 / Fold change vs veh, FOXP1 / RFU, CARD8 / Fold change vs veh, CARD8 / RFU, STRN3 / Fold change vs veh, STRN3 / RFU, ADK / Fold change vs veh, ADK / RFU, RASSF2 / Fold change vs veh, RASSF2 / RFU, WIPF1 / Fold change vs veh, WIPF1 / RFU, LARP1B / Fold change vs veh, LARP1B / RFU, RASA1 / Fold change vs veh, RASA1 / RFU, RB1 / Fold change vs veh, RB1 / RFU, PPFIA1 / Fold change vs veh, PPFIA1 / RFU, MAT2A / Fold change vs veh, MAT2A / RFU, CCT5 / Fold change vs veh, CCT5 / RFU, WDR92 / Fold change vs veh, WDR92 / RFU, CUX1 / Fold change vs veh, CUX1 / RFU, TTC7A / Fold change vs veh, TTC7A / RFU, TMEM135 / Fold change vs veh, TMEM135 / RFU, DEPTOR / Fold change vs veh, DEPTOR / RFU, CPM / Fold change vs veh, CPM / RFU, DNAJB6 / Fold change vs veh, DNAJB6 / RFU, CACNA2D3 / Fold change vs veh, CACNA2D3 / RFU, DTX4 / Fold change vs veh, DTX4 / RFU, TFCP2 / Fold change vs veh, TFCP2 / RFU, GMCL1 /// GMCL1P1 / Fold change vs veh, GMCL1 /// GMCL1P1 / RFU, AEBP2 / Fold change vs veh, AEBP2 / RFU, SNHG1 /// SNORD22 /// SNORD25 /// SNORD26 /// SNORD27 /// SNORD28 /// SNORD29 /// SNORD31 / Fold change vs veh, SNHG1 /// SNORD22 /// SNORD25 /// SNORD26 /// SNORD27 /// SNORD28 /// SNORD29 /// SNORD31 / Fold change (Aza/veh), C12orf56 (ProbeSet 11735607_a_at) / Fold change (ACY-1035/veh), C12orf56 (ProbeSet 11735607_a_at) / Fold change (Aza/veh), FGFR1OP (ProbeSet 11751329_s_at) / Fold change (ACY-1035/veh), FGFR1OP (ProbeSet 11751329_s_at) / Fold change (Aza/veh), VPS36 (ProbeSet 11739960_a_at) / Fold change (ACY-1035/veh), VPS36 (ProbeSet 11739960_a_at) / RFU SYPL1 (11715823_x_at) / Fold change /veh SYPL1 (11715823_x_at) / RFU IGFBP7 (11715501_s_at) / Fold change /veh IGFBP7 (11715501_s_at) / RFU REEP3 (11722064_at) / Fold change /veh REEP3 (11722064_at) / RFU IGLL1 (11728026_x_at) / Fold change /veh IGLL1 (11728026_x_at): dose or concentration left out as unconfirmed
Details: ProbeSet 11732433_s_at; LIST B

Question: Which “RFU, GK” value does the source give for `Nc1ncn([C@@H]2O[C@H](CO)[C@@H](O)[C@H]2O)c(=O)n1` [azacitidine] here?
Answer: 260.90 RFU

Reference: PMC5218480 (PLoS ONE, 2017)
